The results in this text go back to patent publication US20250154127A1, “BICYCLIC HETEROARYL COMPOUNDS AND USES THEREOF” (ETERN BIOPHARMA (SHANGHAI) CO., LTD., priority 2022, published 2025).

Where only a bound is given, the exact number is not on record here.

Assay [1] concerns the target TEAD1(210-426) binding to YAP(50-100) (Homo sapiens, UniProt P28347). The assay can be described thus: TR-FRET Assay for TEAD1(210-426) Binding to YAP(50-100). Conditions: His-TEAD 10 nM, YAP-Biotin peptide 50 nM. As for the experimental part: Compounds were performed 3 fold serial dilution, 12 data points, added to 384 well white plate. The final DMSO concentration is 1%, duplicate for each concentration. Then His-TEAD protein was added to a final concentration of 10 nM, and allowed to preincubate for 30 minutes at room temperature. Assay buffer was added as background control.
YAP-Biotin peptide was added to a final concentration of 50 nM, mixed well, incubate 10 minutes at room temperature. The YAP(50-100) peptide sequence used here is named SEQ ID NO: 2
The Europium-labeled anti-6×His antibody and APC labeled streptavidin were diluted according to the instructions, this detection solution was mixed 1:1 with reaction solution, incubated 1 hour at room temperature.
TR-FRET measurements were made on an Envision (Perkin Elmer), using an excitation wavelength of 320 nm and emissions read at 620 nm and 665 nm. The ratio of the 665 nm to the 620 nm multiply 10000 provides a normalized TR-FRET signal that represents the extent of binding.
Half inhibition concentration IC50 value was calculated by XLfit software.
Background: TR-FRET usually uses a lanthanide donor and a delayed reading to cut background.

For the next assay, the system named is MSTO-211H cells. Description: Proliferation Assay (CellTiter-Glo Luminescent Cell Viability Assay). It counts as cell-based. To be noted: Homo sapiens, 96 hours treatment. How it is done: Example 5: Proliferation Assay
The effect of compound on YAP driven cancer cells proliferation was assessed in MSTO-211H (ATCC, CRL-2081TM) or NCI-H2052 (ATCC, CRL-5915TM) cells using CellTiter-Glo Luminescent Cell Viability Assay (Promega, G7570).
Briefly, individual cell lines were seeded in 96-well cell culture plate at the density of 1,500 cells per well and cultured in RPMII1640 (Gibco-A10491-01)+10% FBS (Gibco-10099-141C)+1% Penicillin-Streptomycin (5,000 U/mL, Gibco-15070-063) overnight at 37° C. with 5% CO2 before adding the compounds.
Following incubation, serial dilutions of compounds dissolved in DMSO were added to each well (3-fold dilution with 9 concentration points). The final concentration of DMSO present in this assay is below 0.5% and make duplication for each compound treated well.
Following 96 hours treatment, compound mediated cell growth inhibition was measured using CellTiter-Go Luminescent Cell Viability Assay (Promega, G7570). […] CellTiter-Glo in each assay well, mix and incubate at room temperature for 10 min. Read signal using EnVision® Multilabel Plate Reader (Perkin Elmer).
For data analysis, cell proliferation inhibition was calculated using the following formula:
Inhibition %=(1−(Compound treated well CTG signal/DMSO well CTG signal))*100.
IC50 values were calculated using GraphPad Prism software using a four-parameter fit model.
On the technique in general: Cellular ATP, detected with luciferase, serves as a proxy for viable cell number.

A word on the IC50: it is the point on the concentration scale where inhibition reaches its midpoint.

TEAD1(210-426) binding to YAP(50-100), sequence (P28347 209-426): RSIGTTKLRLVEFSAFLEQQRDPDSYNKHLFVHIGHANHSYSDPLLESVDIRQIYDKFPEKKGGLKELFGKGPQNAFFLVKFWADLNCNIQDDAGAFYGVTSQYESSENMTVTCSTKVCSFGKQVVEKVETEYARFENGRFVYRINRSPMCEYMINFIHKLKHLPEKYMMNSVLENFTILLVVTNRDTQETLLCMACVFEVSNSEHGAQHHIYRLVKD

Take `CNc1cc(Cn2ccc(-c3nn(-c4ccc(C(F)(F)F)cc4)c4ncccc34)cc2=O)ncn1` [Compound 98, 1-((6-(methylamino)pyrimidin-4-yl)methyl)-4-(1-(4-(trifluoromethyl)phenyl)-1H-pyrazolo[3,4-b]pyridin-3-yl)pyridin-2(1H)-one]: the IC50 in assay [1] is at most 100 nM; with MSTO-211H cells, at most 1000 nM.
On the same counts, the results for `O=c1cc(-c2nn(-c3ccc(C(F)(F)F)cc3)c3ccccc23)ccn1Cc1nccc(OCCO)n1` [Compound 81, 1-((4-(2-hydroxyethoxy)pyrimidin-2-yl)methyl)-4-(1-(4-(trifluoromethyl)phenyl)-1H-indazol-3-yl)pyridin-2(1H)-one] are at most 100 nM and at most 1000 nM.
In the case of `O=c1cc(-c2nn(-c3ccc(C(F)(F)F)cc3)c3ccccc23)ccn1Cc1cccc(Cl)n1` [Compound 89, 1-((6-chloropyridin-2-yl)methyl)-4-(1-(4-(trifluoromethyl)phenyl)-1H-indazol-3-yl)pyridin-2(1H)-one], the concentration for half-maximal inhibition (IC50) in assay [1] was at most 100 nM; in the assay on MSTO-211H cells, at most 1000 nM.
On the same counts, the results for `CNc1nccc([C@@H](C)n2ccc(-c3nn(-c4ccc(C(F)(F)F)cc4)c4ncccc34)cc2=O)n1` [Compound 130, (R)-1-(1-(2-(methylamino)pyrimidin-4-yl)ethyl)-4-(1-(4-(trifluoromethyl)phenyl)-1H-pyrazolo[3,4-b]pyridin-3-yl)pyridin-2(1H)-one] are 100 to 1000 nM and at most 1000 nM.
On the same counts, the results for `COCCN(C)c1nccc(Cn2ccc(-c3nn(-c4ccc(C(F)(F)F)cc4)c4cccc(F)c34)cc2=O)n1` [Compound 155, 4-(4-fluoro-1-(4-(trifluoromethyl)phenyl)-1H-indazol-3-yl)-1-((2-((2-methoxyethyl)(methyl)amino)pyrimidin-4-yl)methyl)pyridin-2(1H)-one] are 100 to 1000 nM and at most 1000 nM.
On the same counts, the results for `O=c1cc(-c2nn(-c3ccc(C(F)(F)F)cc3)c3ccccc23)ccn1Cc1nccc(N2CCC(O)CC2)n1` [Compound 86, 1-((4-(4-hydroxypiperidin-1-yl)pyrimidin-2-yl)methyl)-4-(1-(4-(trifluoromethyl)phenyl)-1H-indazol-3-yl)pyridin-2(1H)-one] are at most 100 nM and at most 1000 nM.
For the compound `O=c1cc(-c2nc(-c3ccc(C(F)(F)F)cc3)n3ccccc23)ccn1Cc1ccnc(OCCO)n1` [Compound 132, 1-((2-(2-hydroxyethoxy)pyrimidin-4-yl)methyl)-4-(3-(4-(trifluoromethyl)phenyl)imidazo[1,5-a]pyridin-1-yl)pyridin-2(1H)-one], the concentration for half-maximal inhibition (IC50) in assay [1] was at most 100 nM; in the assay with MSTO-211H cells it was at most 1000 nM.
On the same counts, the results for `CO[C@H]1C[C@H](Nc2ccnc(Cn3ccc(-c4nn(-c5ccc(C(F)(F)F)cc5)c5ccccc45)cc3=O)n2)C1` [Compound 91, 1-((4-(((1r,3r)-3-methoxycyclobutyl)amino)pyrimidin-2-yl)methyl)-4-(1-(4-(trifluoromethyl)phenyl)-1H-indazol-3-yl)pyridin-2(1H)-one] are at most 100 nM and at most 1000 nM.
On the same counts, the results for `CNc1nccc(Cn2ccc(-c3nc(-c4ccc(C(F)(F)F)cc4)n4ccccc34)cc2=O)n1` [Compound 127, 1-((2-(methylamino)pyrimidin-4-yl)methyl)-4-(3-(4-(trifluoromethyl)phenyl)imidazo[1,5-a]pyridin-1-yl)pyridin-2(1H)-one] are at most 100 nM and at most 1000 nM.
On the same counts, the results for `O=c1cc(-c2nn(-c3ccc(C(F)(F)F)cc3)c3ncccc23)ccn1Cc1cccnc1` [Compound 88, 1-(pyridin-3-ylmethyl)-4-(1-(4-(trifluoromethyl)phenyl)-1H-pyrazolo[3,4-b]pyridin-3-yl)pyridin-2(1H)-one] are at most 100 nM and at most 1000 nM.
Take `CNc1ccnc(Cn2ccc(-c3nn(-c4ccc(C(F)(F)F)cc4)c4cc(F)ccc34)cc2=O)n1` [Compound 53, 4-(6-fluoro-1-(4-(trifluoromethyl)phenyl)-1H-indazol-3-yl)-1-((4-(methylamino)pyrimidin-2-yl)methyl)pyridin-2(1H)-one]: the IC50 in assay [1] was at most 100 nM; with MSTO-211H cells, at most 1000 nM.
On the same counts, the results for `CNc1nccc(Cn2ccc(-c3nn(-c4ccc(C(F)(F)F)cc4)c4ccccc34)cc2=O)c1F` [Compound 67, 1-((3-fluoro-2-(methylamino)pyridin-4-yl)methyl)-4-(1-(4-(trifluoromethyl)phenyl)-1H-indazol-3-yl)pyridin-2(1H)-one] are at most 100 nM and at most 1000 nM.
On the same counts, the results for `C[C@@H](c1ccncc1)n1ccc(-c2nn(-c3ccc(C(F)(F)F)cc3)c3ccccc23)cc1=O` [Compound 14, (S)-1-(1-(pyridin-4-yl)ethyl)-4-(1-(4-(trifluoromethyl)phenyl)-1H-indazol-3-yl)pyridin-2(1H)-one] are at most 100 nM and at most 1000 nM.
For `CNc1nccc(Cn2ccc(-c3nn(-c4ccc(C(F)(F)F)cc4)c4nccnc34)cc2=O)n1` [Compound 99, 1-((2-(methylamino)pyrimidin-4-yl)methyl)-4-(1-(4-(trifluoromethyl)phenyl)-1H-pyrazolo[3,4-b]pyrazin-3-yl)pyridin-2(1H)-one], the IC50 in assay [1] is at most 100 nM; in the assay on MSTO-211H cells, at most 1000 nM.
On the same counts, the results for `CN(CCO)c1nccc(Cn2ccc(-n3nc(-c4ccc(C(F)(F)F)cc4)c4c(F)cccc43)cc2=O)n1` [Compound 139, 4-(4-fluoro-3-(4-(trifluoromethyl)phenyl)-1H-indazol-1-yl)-1-((2-((2-hydroxyethyl)(methyl)amino)pyrimidin-4-yl)methyl)pyridin-2(1H)-one] are at most 100 nM and at most 1000 nM.
On the same counts, the results for `CN(CCO)c1nccc(Cn2ccc(-n3nc(-c4ccc(C(F)(F)F)cc4)c4nccnc43)cc2=O)n1` [Compound 52, 1-((2-((2-hydroxyethyl)(methyl)amino)pyrimidin-4-yl)methyl)-4-(3-(4-(trifluoromethyl)phenyl)-1H-pyrazolo[3,4-b]pyrazin-1-yl)pyridin-2(1H)-one] are at most 100 nM and at most 1000 nM.
For `CNc1ccnc(Cn2ccc(-n3nc(-c4ccc(C(F)(F)F)cc4)c4nccnc43)cc2=O)n1` [Compound 49, 1-((4-(methylamino)pyrimidin-2-yl)methyl)-4-(3-(4-(trifluoromethyl)phenyl)-1H-pyrazolo[3,4-b]pyrazin-1-yl)pyridin-2(1H)-one], the concentration for half-maximal inhibition (IC50) in assay [1] is at most 100 nM; in the assay with MSTO-211H cells, at most 1000 nM.
On the same counts, the results for `C[C@@H](c1ccccn1)n1ccc(-c2nn(-c3ccc(C(F)(F)F)cc3)c3cc(C(N)=O)ccc23)cc1=O` [Compound 30, (S)-3-(2-oxo-1-(1-(pyridin-2-yl)ethyl)-1,2-dihydropyridin-4-yl)-1-(4-(trifluoromethyl)phenyl)-1H-indazole-6-carboxamide] are above 1000 nM and at most 1000 nM.
On the same counts, the results for `O=c1cc(-n2nc(-c3ccc(C(F)(F)F)cc3)c3ncccc32)ccn1Cc1ccnc(OCCO)n1` [Compound 56, 1-((2-(2-hydroxyethoxy)pyrimidin-4-yl)methyl)-4-(3-(4-(trifluoromethyl)phenyl)-1H-pyrazolo[4,3-b]pyridin-1-yl)pyridin-2(1H)-one] are at most 100 nM and at most 1000 nM.
On the same counts, the results for `C[C@@H](c1ccccn1)n1ccc(-c2nn(-c3ccc(C(F)(F)F)nc3)c3cccnc23)cc1=O` [Compound 40, (S)-1-(1-(pyridin-2-yl)ethyl)-4-(1-(6-(trifluoromethyl)pyridin-3-yl)-1H-pyrazolo[4,3-b]pyridin-3-yl)pyridin-2(1H)-one] are above 1000 nM and at most 1000 nM.
With `C[C@@H](c1ccccn1)n1ccc(-c2nn(-c3ccc(C(F)(F)F)cc3)c3ccc(CO)cc23)cc1=O` [Compound 24], the IC50 in assay [1] was at most 100 nM; in the assay with MSTO-211H cells, at most 1000 nM.
For `O=c1cc(-c2nn(-c3ccc(C(F)(F)F)cc3)c3ccccc23)ccn1Cc1nccc(O)n1` [Compound 71], the IC50 in assay [1] was at most 100 nM; in the assay with MSTO-211H cells, at most 1000 nM.
On the same counts, the results for `Nc1nccc(Cn2ccc(-n3nc(-c4ccc(C(F)(F)F)cc4)c4ncccc43)cc2=O)n1` [Compound 118, 1-((2-aminopyrimidin-4-yl)methyl)-4-(3-(4-(trifluoromethyl)phenyl)-1H-pyrazolo[4,3-b]pyridin-1-yl)pyridin-2(1H)-one] are at most 100 nM and at most 1000 nM.
On the same counts, the results for `O=c1cc(-n2nc(-c3ccc(C(F)(F)F)cc3)c3ncccc32)ccn1Cc1ccn(CCO)n1` [Compound 45] are at most 100 nM and at most 1000 nM.
